# In article PMC8480901 (PLoS ONE, 2021):
# Several values for one entry are separate records, joined by “and”; a condition that tells them apart may be missing. Equal entries are not always repeated.
# System: human PBMCs
# Assay: LPS-induced cytokine and chemokine levels in human PBMC supernatant (Luminex, ELISA)
# Type: cell-based
# Conditions: LPS-stimulated PBMC supernatant; for CCl2, Mean / CXCL1, Mean / CXCL2, Mean / MMP9, Mean: sample size 2; for CCl2, individual value / CXCL1, individual value / CXCL2, individual value / MMP9, individual value: single replicate
smiles,measurement,setting,value
C[C@@H]1C[C@H]2[C@@H]3CCC4=CC(=O)C=C[C@]4(C)[C@@]3(F)[C@@H](O)C[C@]2(C)[C@@]1(O)C(=O)CO [Dexamethasone],"CCl2, % reduction",0.0003 µM,-4.68%
same,CXCL1 % reduction,0.0003 µM,-4%
same,CXCL2 % reduction,0.0003 µM,4%
same,MMP9 % reduction,0.0003 µM,3.74%
same,"CCl2, Mean",0.0003 µM,1323 pg/mL
same,"CXCL1, Mean",0.0003 µM,6192 pg/mL
same,"CXCL2, Mean",0.0003 µM,4849 pg/mL
same,"MMP9, Mean",0.0003 µM,2934 pg/mL
same,"CCl2, individual value",0.0003 µM,1383 pg/mL and 1264 pg/mL
same,"CXCL1, individual value",0.0003 µM,6146 pg/mL and 6238 pg/mL
same,"CXCL2, individual value",0.0003 µM,4762 pg/mL and 4936 pg/mL
same,"MMP9, individual value",0.0003 µM,2852 pg/mL and 3016 pg/mL
same,"CCl2, % reduction",0.001 µM,0.423%
same,CXCL1 % reduction,0.001 µM,1.28%
same,CXCL2 % reduction,0.001 µM,3%
same,MMP9 % reduction,0.001 µM,7%
same,"CCl2, Mean",0.001 µM,1261 pg/mL
same,"CXCL1, Mean",0.001 µM,5877 pg/mL
same,"CXCL2, Mean",0.001 µM,4905 pg/mL
same,"MMP9, Mean",0.001 µM,2887 pg/mL
same,"CCl2, individual value",0.001 µM,1275 pg/mL and 1246 pg/mL
same,"CXCL1, individual value",0.001 µM,5806 pg/mL and 5947 pg/mL
same,"CXCL2, individual value",0.001 µM,4830 pg/mL and 4980 pg/mL
same,"MMP9, individual value",0.001 µM,2894 pg/mL and 2879 pg/mL
same,"CCl2, % reduction",0.003 µM,17%
same,CXCL1 % reduction,0.003 µM,6%
same,CXCL2 % reduction,0.003 µM,4%
same,MMP9 % reduction,0.003 µM,16%
same,"CCl2, Mean",0.003 µM,1056 pg/mL
same,"CXCL1, Mean",0.003 µM,5588 pg/mL
same,"CXCL2, Mean",0.003 µM,4851 pg/mL
same,"MMP9, Mean",0.003 µM,2739 pg/mL
same,"CCl2, individual value",0.003 µM,1044 pg/mL and 1067 pg/mL
same,"CXCL1, individual value",0.003 µM,5506 pg/mL and 5671 pg/mL
same,"CXCL2, individual value",0.003 µM,4888 pg/mL and 4814 pg/mL
same,"MMP9, individual value",0.003 µM,2727 pg/mL and 2751 pg/mL
same,"CCl2, % reduction",0.01 µM,33%
same,CXCL1 % reduction,0.01 µM,16%
same,CXCL2 % reduction,0.01 µM,17%
same,MMP9 % reduction,0.01 µM,23%
same,"CCl2, Mean",0.01 µM,860 pg/mL
same,"CXCL1, Mean",0.01 µM,5032 pg/mL
same,"CXCL2, Mean",0.01 µM,4217 pg/mL
same,"MMP9, Mean",0.01 µM,2621 pg/mL
same,"CCl2, individual value",0.01 µM,863 pg/mL and 858 pg/mL
same,"CXCL1, individual value",0.01 µM,4889 pg/mL and 5174 pg/mL
same,"CXCL2, individual value",0.01 µM,4342 pg/mL and 4092 pg/mL
same,"MMP9, individual value",0.01 µM,2587 pg/mL and 2655 pg/mL
same,"CCl2, % reduction",0.03 µM,46%
same,CXCL1 % reduction,0.03 µM,25%
same,CXCL2 % reduction,0.03 µM,30%
same,MMP9 % reduction,0.03 µM,24%
same,"CCl2, Mean",0.03 µM,701 pg/mL
same,"CXCL1, Mean",0.03 µM,4474 pg/mL
same,"CXCL2, Mean",0.03 µM,3565 pg/mL
same,"MMP9, Mean",0.03 µM,2601 pg/mL
same,"CCl2, individual value",0.03 µM,757 pg/mL and 644 pg/mL
same,"CXCL1, individual value",0.03 µM,4471 pg/mL and 4477 pg/mL
same,"CXCL2, individual value",0.03 µM,3377 pg/mL and 3753 pg/mL
same,"MMP9, individual value",0.03 µM,2572 pg/mL and 2630 pg/mL
same,"CCl2, % reduction",0.1 µM,56%
same,CXCL1 % reduction,0.1 µM,35%
same,CXCL2 % reduction,0.1 µM,40%
same,MMP9 % reduction,0.1 µM,39%
same,"CCl2, Mean",0.1 µM,584 pg/mL
same,"CXCL1, Mean",0.1 µM,3861 pg/mL
same,"CXCL2, Mean",0.1 µM,3024 pg/mL
same,"MMP9, Mean",0.1 µM,2364 pg/mL
same,"CCl2, individual value",0.1 µM,488 pg/mL and 679 pg/mL
same,"CXCL1, individual value",0.1 µM,3279 pg/mL and 4443 pg/mL
same,"CXCL2, individual value",0.1 µM,2644 pg/mL and 3404 pg/mL
same,"MMP9, individual value",0.1 µM,2111 pg/mL and 2616 pg/mL
same,"CCl2, % reduction",0.3 µM,55%
same,CXCL1 % reduction,0.3 µM,32%
same,CXCL2 % reduction,0.3 µM,49%
same,MMP9 % reduction,0.3 µM,26%
same,"CCl2, Mean",0.3 µM,591 pg/mL
same,"CXCL1, Mean",0.3 µM,4087 pg/mL
same,"CXCL2, Mean",0.3 µM,2585 pg/mL
same,"MMP9, Mean",0.3 µM,2569 pg/mL
same,"CCl2, individual value",0.3 µM,580 pg/mL and 603 pg/mL
same,"CXCL1, individual value",0.3 µM,3996 pg/mL and 4178 pg/mL
same,"CXCL2, individual value",0.3 µM,2570 pg/mL and 2599 pg/mL
same,"MMP9, individual value",0.3 µM,2679 pg/mL and 2458 pg/mL
same,"CCl2, % reduction",1 µM,58%
same,CXCL1 % reduction,1 µM,32%
same,CXCL2 % reduction,1 µM,48%
same,MMP9 % reduction,1 µM,46%
same,"CCl2, Mean",1 µM,551 pg/mL
same,"CXCL1, Mean",1 µM,4042 pg/mL
same,"CXCL2, Mean",1 µM,2659 pg/mL
same,"MMP9, Mean",1 µM,2244 pg/mL
same,"CCl2, individual value",1 µM,591 pg/mL and 510 pg/mL
same,"CXCL1, individual value",1 µM,4057 pg/mL and 4026 pg/mL
same,"CXCL2, individual value",1 µM,2573 pg/mL and 2746 pg/mL
same,"MMP9, individual value",1 µM,2290 pg/mL and 2198 pg/mL
